Data reported in ChEMBL document CHEMBL3507680, “University of Dundee, Gates Library screen for HepG2 cell viability”.

Experiment: Human HepG2 cell viability assay in 384 well format
Type: toxicity, cell-based
Parameters: dose 125 nL, time 70.5 hour; concentration not given beside the values
Details: HepG2 cells, read-out: Inhibition

For COC(=O)C(C)Sc1nnnn1C1CCOCC1 (centres undefined), the cytotoxicity at 70.5 h was -5.79%.
With Cc1nc(C)c(CNCc2nnc3n2CCCC3C(F)(F)F)s1 (centres undefined) the cytotoxicity at 70.5 h was -8.57%.
COc1ccc(C(=O)NC2CC2)c(OC)c1 showed a cytotoxicity at 70.5 h of -11.5%.
With COc1ncccc1NC(=O)N1CCCC1c1cc(C)no1 (centres undefined) the cytotoxicity at 70.5 h was -16.3%.
For CCNC(=O)NC(=O)CN1CCC(c2c[nH]c3ccc(OC)cc23)CC1, the cytotoxicity at 70.5 h was 24.1%.
Molecule CNC(=O)NC(=O)CSC(C)c1ccccc1F (centres undefined) has a cytotoxicity at 70.5 h of -15.4%.
CCOC(=O)NC(=O)CSC(C)c1ccccc1F (centres undefined) gave a cytotoxicity at 70.5 h of -14.4%.
In the case of COc1ccc2[nH]cc(C3CCN(CCC(N)=O)CC3)c2c1, the cytotoxicity at 70.5 h is reported as -11.2%.
Cc1cnn(Cc2cc(F)ccc2F)c1NC(=O)C1CCOCC1 showed a cytotoxicity at 70.5 h of 1.07%.
Work on CCNC(=O)Nc1c(C)cnn1Cc1cc(F)ccc1F yielded a cytotoxicity at 70.5 h of -11.6%.
For CNC(=O)CCNC(=O)c1cc(Br)c2c(c1)OCCO2, the cytotoxicity at 70.5 h was -6.67%.
With CCn1cc(C#N)c(=O)c2cc(Br)ccc21 the cytotoxicity at 70.5 h was -13.9%.
For CC(=O)NCCNC(=O)c1cc(Br)c2c(c1)OCCO2, the cytotoxicity at 70.5 h was -11.6%.
Work on Cc1cnn(C2CN(CC(O)c3ccccc3)C2)c1 (centres undefined) yielded a cytotoxicity at 70.5 h of 27.4%.
Cc1ccc(N2CCCC(N(C)Cc3cc(C)on3)C2)nn1 (centres undefined) showed a cytotoxicity at 70.5 h of -5.56%.
For CCCNC(=O)Cn1cc(C#N)c(=O)c2cc(Br)ccc21, the cytotoxicity at 70.5 h was -8.09%.
In the case of CCCNC(=O)c1cc(Br)c2c(c1)OCCO2, the cytotoxicity at 70.5 h is reported as -9.42%.
With Cn1nnc(C2(NC(=O)c3ccccc3)CCCC2)n1 the cytotoxicity at 70.5 h was -8.79%.
In the case of CCCC(C)Sc1nnnn1C1CCOCC1 (centres undefined), the cytotoxicity at 70.5 h is reported as -12.8%.
With Cc1cc(C2CCCN2C(=O)NCc2cccnc2)on1 (centres undefined) the cytotoxicity at 70.5 h was -7.94%.
For CC(C)OCCSc1nnnn1C1CCOCC1, the cytotoxicity at 70.5 h was -8.16%.
With Cc1oc(-c2ccco2)nc1CC(=O)NCC(C)(C)N(C)C the cytotoxicity at 70.5 h was -8.24%.
For Cc1cc(C2CCCN2C(=O)NCc2cccnc2N(C)C)on1 (centres undefined), the cytotoxicity at 70.5 h was 23.2%.
O=C(COC1CCCC1)N1CCCC1c1noc(C2CC2)n1 (centres undefined) gave a cytotoxicity at 70.5 h of -9.93%.
With CC(Sc1nnnn1C1CCOCC1)C(F)(F)F (centres undefined) the cytotoxicity at 70.5 h was -7.71%.
CC(C)C(=O)Nc1ccc(C(O)Cn2nc(-c3cccs3)oc2=O)cc1 (centres undefined) showed a cytotoxicity at 70.5 h of 28.2%.
Molecule COc1cc(CNC(C)c2cccc(Cl)c2)cc(OC)c1OC (centres undefined) has a cytotoxicity at 70.5 h of -9.01%.
With COc1cccc(C2CCCN2C(=O)NCCCn2cccn2)c1 (centres undefined) the cytotoxicity at 70.5 h was -6.25%.
NC(=O)C1CCCN1Cc1cccc(NC(=O)c2cccs2)c1 (centres undefined) gave a cytotoxicity at 70.5 h of 2.36%.
In the case of O=C(NCCCn1cccn1)N1CCCC1c1ccsc1 (centres undefined), the cytotoxicity at 70.5 h is reported as -9.1%.
With CCN(C)C(=O)C1(c2ccc(F)cc2F)CCC1 the cytotoxicity at 70.5 h was 4.95%.
COC(=O)c1cnc(/C=C/c2ccc(C(=O)O)cc2)s1 gave a cytotoxicity at 70.5 h of 0.0314%.
Work on CC(=O)Nc1ccc(/C=C/c2ncc(C(=O)O)s2)cc1 yielded a cytotoxicity at 70.5 h of -1.46%.
Work on CC(C)C(C)NC(=O)CN1CCSCC1 (centres undefined) yielded a cytotoxicity at 70.5 h of -2.11%.
Work on CCC(CC)NC(=O)CN1CCSCC1 yielded a cytotoxicity at 70.5 h of 3.72%.
Work on CC(C(=O)N1CCc2ccccc21)N1CCc2cncnc2C1 (centres undefined) yielded a cytotoxicity at 70.5 h of -3.31%.
Work on CCNC(=O)CNC(=O)c1ccn(S(=O)(=O)c2ccc(C)cc2)c1 yielded a cytotoxicity at 70.5 h of 1.83%.
For Cc1nnc(NCCc2nc3ccc(F)cc3n2C)c(C#N)c1C, the cytotoxicity at 70.5 h was 1.4%.
For COc1ccccc1CCNC(=O)CNC1CCc2nc(C)nn2C1 (centres undefined), the cytotoxicity at 70.5 h was -0.271%.
COC(=O)NCC(=O)NCC1(c2c(F)cccc2F)CCCC1 showed a cytotoxicity at 70.5 h of 1.47%.
Cn1c(CCNc2nccnc2C#N)nc2ccc(F)cc21 showed a cytotoxicity at 70.5 h of 2.09%.
Molecule O=C(CCC1CCCCC1)NS(=O)(=O)CC1CC1 has a cytotoxicity at 70.5 h of 14.7%.
Work on Cc1nc2n(n1)CC(NCC(=O)NCCCOC(C)C)CC2 (centres undefined) yielded a cytotoxicity at 70.5 h of -0.276%.
Work on Cc1cc(=O)n(C)cc1NC(=O)Cc1ccc(C(F)(F)F)cc1 yielded a cytotoxicity at 70.5 h of 0.135%.
For O=C(Cc1cnn(-c2ccccc2)n1)NC1CCOCC1, the cytotoxicity at 70.5 h was -0.727%.
Molecule Cc1nc(C)c(C(=O)NCc2nc3cccc(C)c3n2C)o1 has a cytotoxicity at 70.5 h of -0.751%.
CCNc1ncc(C(=O)Nc2nnc(N3CCCCC3)[nH]2)s1 showed a cytotoxicity at 70.5 h of -2.41%.
CC(C)(O)CSCCNC(=O)c1cc(F)ccc1F gave a cytotoxicity at 70.5 h of 12.9%.
Molecule COc1ccc(CNC(C)c2cccc(Br)c2)c(OC)c1OC (centres undefined) has a cytotoxicity at 70.5 h of 17.6%.
